≈ marks a conversion by molar mass, not a printed value.
Key:
[1] = test system: L1210 cells; assay: Cytotoxic activity against L1210 cells; format: cell-based; settings: Mus musculus; L1210 cells, 48 hours, 37° C.; read-out: ED50, cytotoxic activity against L1210
Experimental: To obtain L1210 cells in a logarithmic phase for cytotoxic activity test, in a 250 ml Erlenmeyer flask with a screw cap including Fisher medium warmed to 36° to 37° C. L1210 cells were adjusted to a concentration of 2-3×10^5 cells/ml and then cultured, before 24 hours from the beginning of experiment. Then, the culture solution thus obtained was suspended to prepare a L1210 cell suspension having a concentration of about 0.8-1.0×10^6 cells/ml. Test sample was dissoved in ethanol or dimethylsulfoxide in a certain concentration just before the experiment. 0.1 ml of the sample solution was diluted 10 times with 0.9 ml of a fresh medium. To each screw-capped test tube were added 100, 50, 25 μl, respectively, of the sample dilutions and then added 5 ml of the cell suspension (5×10^4 cells/ml) prepared above to use as the test group. To the test tubes for the control group (2√n: n=number of the samples), only 5 ml of the cell suspension was added. All test tubes were cultured for 48 hours in a CO2 incubator at 37° C. and then the number of cells was counted using a haemacytometer.
(§1) The ED50 value is defined as a concentration (μg/ml) of the sample which inhibits the growth of cancer cells by 50% of the control group and determined according to a method described in NIC's mannual (NIC=National Cancer Institue, U.S.A.). The growth rate Y(%) of cells in the presence of the test sample in each concentration was calculated according to the followign equation: […]
(§2) In the above equation, T means the average cell number per ml in the test group after incubation for 48 hours in the presence of the test samples in each concentration, C means the average cell number per ml in the control group after incubation for 48 hours, and Co means the average cell number per ml in the control group at the beginning of incubation. The Y(%) value at each concentration and log10 value of each concentration were obtained and the regression curve was constructed according to the following equation from those obtained values. In this case, when all the Y(%) value obtained at each concentration is greater than 55% or lower than 45%, the experiment was repeatedly conducted.
(§3) To construct the regression curve Y=A+BX the values A and B were obtained using the following equation. [formula]
(§4) In the above, the value N is the number of selected points which is greater than 2 and lower than, or identical with, the number of cencentration of the test sample, Xi is log(concentration) i, and Yi is the growth ratio at (concentration)i. The value of ED50 was obtained for those obtained slope and intercept.

[2] = test system: A549 cancer cells; assay: Cytotoxic activity against A549 cancer cells (sulforhodamin B method); format: cell-based; settings: Homo sapiens; A549 cells, SRB method, 48 hours; read-out: ED50, cytotoxic activity against A549
Experimental: The cytotoxic activity against A549 cancer cells was determined using a method for measuring sulforhodamin B (SRB), which was developed in the year 1989 by NIC for measuring anticancer activity of the drug in vitro. For the experiment, cells under subculturing were separated from the attached surface with trypsin-CDTA solution and then dispensed into a 24-well flat-bottom microplate (Falcon) so that the number of cells per well is 8×10^4 (A549). The microplate was incubated in a CO2 incubator for 24 hours to attach the dispensed cells to bottom. The medium was removed with aspirator. Then, 100 μl of the solution of the test compounds diluted in a log-dose of 6 kinds of concentration was added to each well containing cells, in a multiple of 3. The microplate was incubated for further 48 hours. In addition, the diluted solution of the test compounds above was filtered through a 0.22 μm filter, before addition to the cells, to keep the experiment under sterilized condition. The cells were incubated with the test compounds for 48 hours and then the medium was removed from each well. 100 μl of 10% trichloroacetic acid (TCA) was added to each well and then the plate was allowed to stand at 4° C. for one hour to fix the cells to the bottom of plate. After fixing the cells, the plate was washed 5 to 6 times with water to completely remove any remaining TCA solution and then dried at room temperature until water is no longer present. To the completely dried plate was added the dying solution of 0.4% SRB dissolved in 1% acetic acid in an amount of 250 μl per well to stain the cells for 30 minutes and then the plate was washed again 5 to 6 times with 1% acetic acid solution to remove the remaining SRB which is not bound to the cells. The stained cell plate was dried again at room temperature. Then, the dying solution was carefully dissolved in a certain amount of 10 mM Tris so that the O.D. value in the control group at 520 nm is 0.8-1.0 Å (optical density), and the optical density at 520nm was determined. The ED50 value was obtained from the determined optical density. To calculate the activity of the drug against cancer cells, the number of cells (Tz) at the beginning of the addition of drug, the number of cells (C) after incubation with the medium in the absence of drug for 48 hours and the number of cells (T) after incubation in the presence of drugs at each concentration for 48 hours were determined.
The anticancer activity of the test compounds was determined form the following equations. Specifically, in the […] the equation (T-Tz)/(C-Tz)×100 was used and in the case of Tz<T the equation (T-Tz)/Tz×100 was used. Then the IC50 value wich is the concentration of drug which inhibits the growth of cancer cells by 50% was calcualted from the above calculated values using a data regressive function of LOTUS programme and the cytotoxic activities of the test compounds were compared with each other.

[3] = test system: S-180 sarcoma cells; assay: Animal experiment using Sarcoma S-180 cells (survival of mouse); format: in vivo, male ICR mouse; settings: ip, S-180 ICR mouse, intraperitoneal, 7 to 8 injections; for responders at 10 µmol/kg / response vs control in vivo at 10 µmol/kg: daily dose 10 μmole (mg/kg/day given per compound)
Experimental: In this experiment, healthy male ICR mouse weighing 20 to 25 g were used as test animal and were fed with water and feed without any restriction in the chamber controlled at the temperature of 23° to 24° C. As the feed, the antibiotic-free feed for mouse was used.
S-180 cells which were incubated for 7 days within abdominal cavity of ICR mouse were separated together with ascites. To the separated cells was added sterilized cold physiological saline and the mixture was centrifuged with 400×g for 2 minutes to separate the cell precipitate. The separated cell precipitate was suspended again in sterilized cold physiological saline and then centrifuged to remove the supernatant. Only S-180 cells were taken, excluding any red bllod cells incorporated therein, washed three times with the same method as above, and then suspended to obtain the cell suspension in concentration of 10^7 cells/ml by counting the number of cells with a haemacytometer. Each 0.1 ml of this cell suspension was transplanted in an abdominal cavity.
After 24 hours from the transplantation, mouse were divided so that each group contains 8 to 9 mouse. The test sample was dissolved in a predetermined amount of dimethylsulfoxide to prepare the stock solution which was stored at 4° C. 30 μl of the stock solution was taken and then mixed with 1.5 ml of physiological saline. 0.1 ml of this mixture was intraperitoneally injected to the test animal. To the control group, 2% dimethylsulfoxide-physiological saline solution was injected. Meanwhile, doxorubicin which is used as the comparative drug was dissolved in 2% dimethylsulfoxide-physiological saline solution and then injected in an amount of 0.5 mg(titer)/kg. The schedule for injection comprises a total of 7 to 8 injections in the manner that after the transplantation of cancer cells 0.1 ml of the test sample per a day is administered for 2 to 4 days followed by the rest for one day. The survival rate was calculated on the basis of the date on which all of one control group is died (approximately 18 to 20 days). The survival rate (T/C, %) was calculated by the following equation as proposed in NIC's protocol: [formula]

[4] = test system: K-562 cells; assay: Cytotoxic activity against K-562 cells; format: cell-based; settings: Homo sapiens; K562 cells, 48 hours, 37° C.; read-out: ED50, cytotoxic activity against K562
Experimental: As in the test for the cytotoxic activity against L1210 cells, the test samples were dissoved in ethanol or dimethylsulfoxide in a certain concentration. 0.1 ml of the sample solution was mixed with 0.9 ml of a fresh medium to prepare the dilutions. To each two test tubes having a screw cap were added 100, 50, 25 μl, respectively, of the sample dilutions by means of a micropipet. To each test tube for the test group and the control group (2√n: n=number of the samples) was added 5 ml of the dilutions of HL-60 cells and K-562 cells which were cultured and activated before 24 hours from the beginning of experiment and then diluted in a concentration of 1×10^5 cells/mi. All test tubes were cultured for 48 hours in a CO2 incubator at 37° C. and then the number of cells was counted using a haemacytometer.
as §1, §2, §3, §4

[5] = 1200 h, read-out: Number of mouse survived for 50 days (converted)

Row | Structure (SMILES) | IC50 [1] | IC50 [2] | responders at 15 µmol/kg ([3]; 1200 h, daily dose 15 μmole (mg/kg/day given per compound), read-out: Number of mouse survived for 50 days (converted)) | response vs control in vivo at 15 µmol/kg ([3]; daily dose 15 μmole (mg/kg/day given per compound), read-out: T/C) | IC50 [4] | responders at 10 µmol/kg [3, 5] | response vs control in vivo at 10 µmol/kg ([3]; read-out: T/C) | responders at 5 µmol/kg ([3]; 1200 h, daily dose 5 μmole (mg/kg/day given per compound), read-out: Number of mouse survived for 50 days (converted)) | response vs control in vivo at 5 µmol/kg ([3]; daily dose 5 μmole (mg/kg/day given per compound), read-out: T/C)
1 | CCCCCCCC(=O)OC(CCCCC)C1=CC(=O)c2c(O)ccc(O)c2C1=O (stereo not drawn) [2-(1-octanoyloxyhexyl)-5,8-dihydroxy-1,4-naphthoquinone] | 0.2 µg/mL (≈ 0.48 µM) | 2.1 µg/mL (≈ 5.04 µM) | 0% | 95% | 0.3 µg/mL (≈ 0.72 µM) | – | – | – | –
2 | CCOC(CCC(C)C)C1=CC(=O)c2c(O)ccc(O)c2C1=O (stereo not drawn) [2-(1-ethoxy-4-methylpentyl)-5,8-dihydroxy-1,4-naphthoquinone] | 0.04 µg/mL (≈ 0.126 µM) | 1.7 µg/mL (≈ 5.34 µM) | – | – | 0.08 µg/mL (≈ 0.251 µM) | 0% | 105% | – | –
3 | CC/C=C/CC(=O)OC(CCCCC)C1=CC(=O)c2c(O)ccc(O)c2C1=O (stereo not drawn) [2-[1-(3-trans-hexenoyloxy)-hexyl]-5,8-dihydroxy-1,4-naphthoquinone] | 0.2 µg/mL (≈ 0.518 µM) | 1.5 µg/mL (≈ 3.88 µM) | – | – | 0.2 µg/mL (≈ 0.518 µM) | 0% | 105% | – | –
4 | CCCCCC(=O)OC(CCCCC)C1=CC(=O)c2c(O)ccc(O)c2C1=O (stereo not drawn) [2-(1-hexanoyloxyhexyl)-5,8-dihydroxy-1,4-naphthoquinone] | 0.1 µg/mL (≈ 0.257 µM) | 0.3 µg/mL (≈ 0.772 µM) | – | – | 0.2 µg/mL (≈ 0.515 µM) | 0% | 151% | – | –
5 | CC/C=C/CC(=O)OC(CCCCCCCCC)C1=CC(=O)c2c(O)ccc(O)c2C1=O (stereo not drawn) [2-[1-(3-trans-hexenoyloxy)-decyl]-5,8-dihydroxy-1,4-naphthoquinone] | 0.6 µg/mL (≈ 1.36 µM) | 7.1 µg/mL (≈ 16 µM) | – | – | 0.6 µg/mL (≈ 1.36 µM) | 0% | 130% | – | –
6 | CC(=O)OC(CCC(C)C)C1=CC(=O)c2c(O)ccc(O)c2C1=O (stereo not drawn) [2-(1-acetoxy-4-methylpentyl)-5,8-dihydroxy-1,4-naphthoquinone] | 0.05 µg/mL (≈ 0.15 µM) | 1.5 µg/mL (≈ 4.51 µM) | – | – | 0.07 µg/mL (≈ 0.211 µM) | – | – | 14.3% | 188%
7 | CCCCCCCCCCCCC(OC(=O)CCC)C1=CC(=O)c2c(O)ccc(O)c2C1=O (stereo not drawn) [2-(1-butanoyloxytridecyl)-5,8-dihydroxy-1,4-naphthoquinone] | 0.6 µg/mL (≈ 1.31 µM) | > 20 µg/mL | – | – | 2.7 µg/mL (≈ 5.89 µM) | – | – | – | –
8 | COc1ccc(OC)c2c1C(=O)C=C(C(CCC(C)C)OC)C2=O (stereo not drawn) [2-(1-methoxy-4-methylpentyl)-5,8-dimethoxy-1,4-naphthoquinone] | 0.2 µg/mL (≈ 0.602 µM) | 5.6 µg/mL (≈ 16.8 µM) | – | – | 2.1 µg/mL (≈ 6.32 µM) | – | – | – | –
9 | CCCCCC(O)C1=CC(=O)c2c(OC)ccc(OC)c2C1=O (stereo not drawn) [2-(1-hydroxyhexyl)-5,8-dimethoxy-1,4-naphthoquinone] | 0.3 µg/mL (≈ 0.942 µM) | 0.9 µg/mL (≈ 2.83 µM) | – | – | 0.6 µg/mL (≈ 1.88 µM) | – | – | – | –
10 | CCCCCCCCCCCCC(OC(=O)CCCCC)C1=CC(=O)c2c(O)ccc(O)c2C1=O (stereo not drawn) [2-(1-hexanoyloxytridecyl)-5,8-dihydroxy-1,4-naphthoquinone] | 1.5 µg/mL (≈ 3.08 µM) | > 20 µg/mL | – | – | > 20 µg/mL | – | – | – | –
11 | CCCCCC(O)C1=CC(=O)c2c(O)ccc(O)c2C1=O (stereo not drawn) [2-(1-hydroxyhexyl)-5,8-dihydroxy-1,4-naphthoquinone] | 0.03 µg/mL (≈ 0.103 µM) | 1.1 µg/mL (≈ 3.79 µM) | – | – | 0.02 µg/mL (≈ 0.0689 µM) | – | – | – | –
12 | CCCCC(O)C1=CC(=O)c2c(O)ccc(O)c2C1=O (stereo not drawn) [2-(1-hydroxypentyl)-5,8-dihydroxy-1,4-naphthoquinone] | 0.04 µg/mL (≈ 0.145 µM) | 0.5 µg/mL (≈ 1.81 µM) | – | – | 0.08 µg/mL (≈ 0.29 µM) | – | – | – | –
13 | CCCCCCCCCC(OC(=O)CCCCC)C1=CC(=O)c2c(O)ccc(O)c2C1=O (stereo not drawn) [2-(1-hexanoyloxydecyl)-5,8-dihydroxy-1,4-naphthoquinone] | 0.5 µg/mL (≈ 1.12 µM) | 13 µg/mL (≈ 29.2 µM) | – | – | 1.1 µg/mL (≈ 2.47 µM) | – | – | – | –
